The values that follow come from US5688936A, “Vesicle membrane transport proteins” (priority 1993, dated 1997).

For series [1], the system named is MPP^+ -resistant CHO cells. Put plainly: MTT cytotoxicity assay in MPP+-resistant transfected CHO cells. The format is cell-based, Chinese hamster. How it is done: (§1) Differential susceptibility to the respiratory complex I inhibitors MPP^+ and rotenone was shown by measuring toxicity by measuring general cell dehydrogenase activity with reduction of a tetrazolium dye (MTT) in a spectrophotometric plate assay as described by Hansen et al., J. Immunol. Methods 119:203-210 (1989). Briefly, a stock solution of MTT (3,(4,5-dimethylthiazol-2-yl)2,5-diphenyltetrazolium bromide) was dissolved at a concentration of 5 mg/ml in sterile phosphate buffered saline at room temperature. To each well was added 25 μl of the stock solution. After two hours of incubation at 37° C., 100 μl of extraction buffer (20% w/v of SDS in a solution of 50% each dimethylformamide and demineralized water with the pH adjusted to 4.7 with acetic acid and HCl). After an overnight incubation at 37° C., the optical densities at 570 nm were measured using a multiscanner, employing the extraction buffer as the blank. This assay was carried out in triplicate on 96-well plates (NUNC, Denmark). MPP^+ and rotenone at the concentrations indicated in FIG. 6a and 6b, respectively, was added to wild-type and MPP^+ -resistant CHO cells at approximately 50% confluence, and toxicity was assayed after 2-3 days by measuring general cell dehydrogenase activity with the reduction of the tetrazolium dye MTT (3,(4,5-dimethylthiazol-2-yl)2,5-diphenyl-tetrazolium bromide). After addition of the dye at a final concentration of 1 mg/ml, the cells were incubated for two hours at 37° C. and the formazan product was solubilized in 10% sodium dodecyl sulfate (SDS). The plates were maintained at 37° C. for an additional twenty hours and the optical density was determined in an ELISA plate reader at a test wavelength of 570 nm, a reference wavelength of 630 nm and a calibration setting of 1.99. All determinations were performed in triplicate and expressed as the mean, with the error bars representing standard deviation (FIG. 6a and 6b).
To determine whether an alteration in the process of respiration was responsible for the resistance to MPP^+, the effects of other known respiratory inhibitors were examined. […] Thus, if the resistance were due to a change in the site of action, the transfected cells should also show resistance to rotenone. […] However, rotenone is considered to have its selected effect on respiration at relatively low doses, and an additional, less specific effect at higher doses.
Therefore, the toxicity of MPP^+ to transfected cells in the presence of 1 μM reserpine was examined.

Another series concerns chromaffin cells. The following applies: [3H]-MPP+ accumulated; cited from earlier work.
For another series, the system named is wild-type CHO cells. Put plainly: MTT cytotoxicity assay in wild-type CHO cells. The format is cell-based, Chinese hamster. The following applies: wild-type CHO, 2-3 days. How it is done:
as §1

For another series, the system named is CHO cells. Put plainly: Inhibition of protein synthesis in CHO cells by MPP+.
Series [2] has as its system PC12 cells. Conditions: cited from earlier work.
Another series relates to Untransfected CHO cells. Put plainly: Survival/selection of untransfected CHO cells in MPP+. The format is cell-based, Chinese hamster. Conditions: 500 μM. The method, then: To determine whether the transfer of DNA sequences from PC12 cells into CHO cells could be used to generate stable CHO transformants resistant to MPP^+, it was first necessary to determine the spontaneous rate of resistance under different culture conditions. […] Selection of one million CHO cells at intermediate density (25-50% confluence) in 500 μM MPP^+ gave rise to 5-10 small colonies after one month. However, these cells contained particulate inclusions characteristic of MPP^+ toxicity, and grew very slowly even when maintained at low density. At moderate density, the cells degenerated further and detached from the plate.

In the next series the test system is transfected CHO cells. Put plainly: Survival/selection/growth of transfected CHO cells in MPP+. The format is cell-based, Chinese hamster. How it is done:
Using the above methods, the PC12 cDNA library constructed in the plasmid expression vector CDM8 was transfected into CHO cells. Using the selectable marker RSV- neo (Walker, Weizmann Institute, Israel), […] independent stable transformants were obtained after selection in the neomycin analogue G418 at 400 μg/ml effective dose. These cells were then selected at 40% confluence in 1 mM MPP^+. […] However, at four weeks, a colony of cells without refractile inclusions appeared and rapidly covered the plate. The apparently normal growth of these cells in the presence of 1 mM MPP^+ stands in marked contrast to all of the resistant clones obtained without transfection, which grew very slowly if at all. […] However, at 1 mM MPP^+, the resistant cells did show some toxicity, particularly when the assay was performed at higher cell density.
To identify the cDNA sequences responsible for conferring resistance to MPP^+, integrated plasmids were rescued from the primary CHO transformant obtained as described above in Example 1. […] The primary MPP^+ -resistant CHO transformant was amplified in culture and following cell lysis in 5M guanidinium isothiocyanate, the high molecular weight DNA prepared by repeated precipitation in isopropanol. After digestion with Not I, which cleaves the CDM8 vector once downstream of the cDNA insertion site as well as at rare eight-nucleotide recognition sites elsewhere in the genome, the DNA was religated and transformed into E. coli by electroporation as described by Stern-Bach et al., J. Biol. Chem. 265:3961-3966 (1990). Four pools of the derived plasmids containing approximately 50 colonies each were transfected into CHO cells and after two days were selected in 1 mM MPP^+. Four weeks later, one pool gave rise to several MPP^+ -resistant colonies, two pools gave rise to 1-2 colonies and the fourth pool and CDM8 vector gave rise to no healthy, resistant colonies. Restriction enzyme analysis of the plasmids in the pool conferring the highest frequency of resistance to MPP^+ indicated three independent clones of 1.0, 1.3 and 2.5 kb. […]

Series [3] deals with T1, chromaffin granule amine transport protein (Rattus norvegicus, UniProt Q01818).
T1 sequence (Q01818 1-521): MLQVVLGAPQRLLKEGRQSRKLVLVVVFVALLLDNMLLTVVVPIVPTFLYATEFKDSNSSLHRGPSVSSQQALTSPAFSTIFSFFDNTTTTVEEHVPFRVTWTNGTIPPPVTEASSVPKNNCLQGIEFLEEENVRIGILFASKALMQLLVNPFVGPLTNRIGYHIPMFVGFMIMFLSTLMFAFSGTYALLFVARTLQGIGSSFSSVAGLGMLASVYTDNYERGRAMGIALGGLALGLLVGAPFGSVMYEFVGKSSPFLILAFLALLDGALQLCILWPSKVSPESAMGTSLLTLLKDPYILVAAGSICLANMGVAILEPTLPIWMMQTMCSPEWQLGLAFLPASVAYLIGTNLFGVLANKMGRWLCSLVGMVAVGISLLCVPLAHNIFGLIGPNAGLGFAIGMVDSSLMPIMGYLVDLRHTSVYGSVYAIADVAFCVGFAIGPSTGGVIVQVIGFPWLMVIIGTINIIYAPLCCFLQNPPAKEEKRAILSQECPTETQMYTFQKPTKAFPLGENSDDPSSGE
Put plainly: Quantitative [3H]dopamine transport assay with mpp^res CHO cell homogenate. The format is biochemical. Conditions: for rank order for affinity of substrates: quantitative assay. The method, then:
The quantity of label bound is measured after filtration of the assay mixture. Preferably, the label is a radioactive label. […] This can be done by standard graphic kinetic techniques such as the Lineweaver-Burke plot.
Incubation was performed at 29° C. for the time period indicated (from 2 minutes to 30 minutes). The assay was terminated by dilution in cold assay buffer followed by filtration through 0.2 μm Supor™ 200 membranes (Gelman, Ann Arbor, Mich.) and the bound radioactivity was measured. The cells used for the quantitative assay are selected in MPP^+ or screened with antibody to ensure that they express the transporter at high levels, as it is difficult to measure activity in this assay at low levels of transporter expression.
The quantitative transport test was performed as described above on wild-type CHO cells and mpp^res CHO cells.

The target of series [4] is T1, chromaffin granule amine transport protein. Put plainly: cell-based. The format is cell-based. Conditions: for Dopamine Fluorescence (mpp^res CHO): untreated control ++++, 12 hour dopamine loading; for inhibition of vesicular amine uptake/transport (fluorescence assay, in words): concentrations of Table 1. The method, then:
Uptake and cellular compartmentalization of loaded dopamine were performed by growing cells on poly-lysine-coated glass coverslips. […] The cells were then washed three times in 0.1M sodium phosphate, pH 7.4, and incubated at 4° C. in 2% glyoxylic acid/0.5 mg% MgCl2, pH 4.9-5.0 for three minutes as described by de la Torre, J. Neurosci. Meth. 3:1-5 (1980). Briefly, excess solution is wiped off the bottom and edges of the slide using absorbent paper, taking care not to touch the section. The coverslips were then drained thoroughly, dried in air at 45° C. heated to 80° C. for five minutes, inverted over mineral oil on glass slides and examined under fluorescence using the appropriate filters as described by Knigge et al., Brain Res. 120:393-405 (1977). Briefly, the preparations were infiltrated with warm immersion oil and examined in a Leitz MPV2 microspectrofluorometer equipped with Schoffel excitation and emission grating monochromators, photomultipliers, and ratio computing circuitry. Cells were scanned with either monochromatic light (370 nm) or narrow band excitation (S405, BG3) light for the purpose of identifying fluorescence within cells. Ploem illumination was used in combination with a X 63 or X 100 oil immersion objective.
Dopamine-loaded fluorescence was carried out as described in Example 1. […] Glyoxylic-acid-induced fluorescence was used to determine the intracellular distribution as described above in Example 1. The procedures were the same as described in Example 1 however a pure cDNA clone encoding the vesicle membrane transport protein, selected in the presence of MPP^+, obtained as described herein, was used rather than the primary transformant. […]
The effects of various pharmacologic agents were tested to determine whether the properties of the protein encoded by the mpp^res cDNA corresponded with those expected for the chromaffin granule amine transport protein. […] The cells were pre-incubated in Krebs-Ringer buffer containing 1 μM pargyline and the dose of the drug indicated for 15 minutes. 25 nM [^3 H]-dopamine was then added in the same buffer and after incubation at 37° C. for one hour, the cells were washed in cold Krebs-Ringer buffer, lysed and counted in Ecolite (ICN) as described by Greene and Rein, Brain Res. 129:247-263 (1978). Values were determined from three separate wells and the mean was expressed as percent of control uptake±standard deviation. […] The dose required to inhibit maximal uptake by 50%, Ki, was estimated from the fluorescence data using a range of concentrations for each agent.

Series [5] has as its system PC12 cells. Put plainly: cells. The following applies: Rattus norvegicus, PC-12, 1 h, read-out: [^3 H]-Dopamine Uptake (PC12).
Protocol: The effects of various pharmacologic agents were tested to determine whether the properties of the protein encoded by the mpp^res cDNA corresponded with those expected for the chromaffin granule amine transport protein. […] The cells were pre-incubated in Krebs-Ringer buffer containing 1 μM pargyline and the dose of the drug indicated for 15 minutes. […] Values were determined from three separate wells and the mean was expressed as percent of control uptake±standard deviation.

Read-outs that look alike come from different tables or passages of the source.

On to `C[n+]1ccc(-c2ccccc2)cc1` [MPP^+, 1-methyl-4-phenylpyridinium], for which the “MPP+ toxicity (MTT assay)” value in series [1] (resistant cells, 1 mM, particularly at higher cell density) is listed as “some toxicity”; in [1] (resistant clone, 2-3 days) it was “relative lack of toxicity”; in the series on wild-type CHO cells it was “steep dose-response curve”. Further, in the series on chromaffin cells, the “toxicity to chromaffin cells” value was “relatively little toxicity”. In the series on CHO cells, the “sensitivity of CHO cells to MPP+ relative to PC12 cells” value is “greater sensitivity to MPP^+ than PC12 cells”. Further, the “inhibition of protein synthesis” value in the series on CHO cells (over 100 μM, 2-3 days, high density CHO cells) is recorded as “virtually complete inhibition of protein synthesis”. Further, the PC12 cell death entry in the series with PC12 cells [2] (100 μM) is reported as “death by two weeks”; with PC12 cells [2] (1 mM) it was “cell death by four days”. Moreover, the “number of resistant colonies from one million CHO cells” value in the series on Untransfected CHO cells (25-50% confluence, after one month) is listed as 5-10 small colonies. Also, the “cell survival in MPP+” value is “all of the cells died within 24 hours” in the series with Untransfected CHO cells (high density (more than 75% confluence)); “the cells stopped growing, gradually acquiring refractile cytoplasmic inclusions, swelling and eventually detaching from the plate after several weeks” in the series with Untransfected CHO cells (low density (less than 25% confluence)). In addition, the “acquired resistance of untransfected CHO cells” value with Untransfected CHO cells (selection for over two months) is “little resistance”. The “toxicity in library-transfected CHO cells” value in the series with transfected CHO cells (1 mM, 40% confluence) is given as “Virtually all of the cells developed toxicity within one week”. Also, the “growth of the resistant clone in MPP+” value with transfected CHO cells (vs untreated wild-type cells, particularly at higher densities) is “slightly more slowly”.

With `N#CC(C#N)=NNc1cccc(Cl)c1` [carbonyl cyanide m-chlorophenylhydrazone], the “dopamine incorporation by mpp^res cells” value in series [3] (5 μM) is given as “blocked”.

Regarding `CCN(CC)CCCC(C)Nc1ccnc2cc(Cl)ccc12` (stereo not drawn) [chloroquine], the “Dopamine Fluorescence (mpp^res CHO)” value in series [4] (agent 500 μM) is given as 0. The “inhibition of vesicular amine uptake/transport (fluorescence assay, in words)” value in series [4] is reported as “inhibited vesicular amine uptake”. Also, in the series with PC12 cells [5], the activity at 500 µM was determined as 17 ± 1%.

A word on the Ki: it is a dissociation constant, usually derived from enzyme kinetics or from competition with a known ligand. Take `CNCCCN1c2ccccc2CCc2ccccc21` [desipramine]: in [4] (dose required to inhibit maximal uptake by 50%, estimated from fluorescence data, read-out: Ki (est)), the Ki was 500 µM.

`NCCc1ccc(O)c(O)c1` [dopamine]: in series [3], the “rank order for affinity of substrates” value is recorded as “serotonin>epinephrine>dopamine>norepinephrine”.

`CNC[C@H](O)c1ccc(O)c(O)c1` [epinephrine]: in [3], the “rank order for affinity of substrates” value was “serotonin>epinephrine>dopamine>norepinephrine”.

Consider `NC[C@H](O)c1ccc(O)c(O)c1` [norepinephrine], for which the “rank order for affinity of substrates” value in series [3] was “serotonin>epinephrine>dopamine>norepinephrine”.

As for `NCCc1c[nH]c2ccc(O)cc12` [serotonin], in [3], the “rank order for affinity of substrates” value is “serotonin>epinephrine>dopamine>norepinephrine”.

Regarding `COc1ccc(CCN(C)CCCC(C#N)(c2ccc(OC)c(OC)c2)C(C)C)cc1OC` (stereo not drawn) [verapamil], in series [4], the Ki stood at 50 µM and the “inhibition of vesicular amine uptake/transport (fluorescence assay, in words)” value is listed as “inhibited transport, but at high concentrations”. Moreover, in [4] (agent 100 μM), the “Dopamine Fluorescence (mpp^res CHO)” value was determined as 0. In addition, the activity at 100 µM in the series with PC12 cells [5] is 21 ± 1%.
